{
  "source": "patent US10836735B2",
  "about": "“Compositions and methods for treating cancers” (CEDARS-SINAI MEDICAL CENTER, priority 2014, dated 2020)",
  "key": {"[1]": {"system": "BT474 breast cancer cells", "assay": "Cell survival by MTT assay", "format": "cell-based", "conditions": "BT474, 72", "procedure": "(§1) Cells were cultured in the presence or absence of different doses of ALB-185357 for 72 and cell survival measured by MTT assay (FIGS. 17 and 18) or by counting cell number (FIG. 19)."}, "[2]": {"system": "hepatocellular carcinoma HepG2 cells", "assay": "Cell survival by MTT assay", "format": "cell-based", "conditions": "HepG2, 72", "procedure": "as §1"}, "Raji lymphoma cells": {"system": "Raji lymphoma cells", "assay": "Cell survival by counting cell number", "format": "cell-based", "conditions": "72", "procedure": "as §1"}, "[3]": {"system": "MIA PaCa-2 pancreatic cancer cell line", "assay": "Apoptosis by DNA fragmentation", "format": "cell-based", "conditions": "MIA PaCa-2, 72", "procedure": "Dashed lane represents the expected additive effect (Significance between expected additive effect and observed effect is achieved at 2.4 uM).\nMIA PaCa-2 cells were cultured in the presence or absence of different doses of ALB-185357 for 72 and apoptosis assessed by measuring DNA fragmentation.\nMIA PaCa-2 cells were cultured in the presence or absence of different doses of ALB-185357 or gemcitabine at the low dose of 1 ng/ml for 72 and apoptosis assessed by measuring DNA fragmentation."}, "[4]": {"system": "normal pancreatic ductal cells", "assay": "Cell survival of normal cells by MTT assay", "format": "cell-based", "conditions": "72", "procedure": "Cells were cultured in the presence or absence of different doses of ALB-185357 for 72 and cell survival measured by MTT assay."}, "[5]": {"system": "MIA PaCa-2 pancreatic cancer cell line", "assay": "Western: EMT and cancer stemness markers", "format": "cell-based", "conditions": "MIA PaCa-2, 72", "procedure": "(§2) Cells were cultured in the presence or absence of different doses of ALB-185357 for 72 and protein levels measured by Western (FIG. 22A) and cell invasion measured in Matrigel Invasion Chambers (FIG. 22B)."}, "[6]": {"system": "MIA PaCa-2 pancreatic cancer cell line", "assay": "Cell invasion in Matrigel Invasion Chambers", "format": "cell-based", "conditions": "MIA PaCa-2, Matrigel Invasion Chambers", "procedure": "as §2"}, "[7]": {"system": "MIA PaCa-2 pancreatic cancer cell line", "assay": "Western: histone acetylation and GSK-3β phosphorylation/inhibition", "format": "cell-based", "conditions": "MIA PaCa-2, 72", "procedure": "Cells were cultured in the presence or absence of different doses of ALB-185357 for 72 and protein levels measured by Western."}, "KPC mice": {"system": "KPC mice", "assay": "Survival of KPC mice with pancreatic adenocarcinoma", "format": "in vivo", "conditions": "5 mg/Kg ip 3 times per week from age 8 weeks until death", "procedure": "KPC mice, which have Kras and p53 mutations and spontaneously develop pancreatic adenocarcinoma, were ip injected 3 times per week with 5 mg/Kg of ALB185357 from age 8 weeks until death."}, "[8]": {"system": "BxPC-3 pancreatic cancer cell line", "assay": "Cell survival by MTT assay", "format": "cell-based", "procedure": "Thus, the effect of ALB-185357 (a dual inhibitor of HDAC and GSK3β) represents an additional synergism to that observed with the combination of individual agents.\nBxPC-3 pancreatic cancer cells were cultured in the presence or absence of different doses of ALB-188540 or ALB-185643 for 72 and cell survival measured by MTT assay."}, "[9]": {"system": "MIA PaCa-2 pancreatic cancer cells", "assay": "Cell survival with GSK3β inhibitor, HDAC inhibitor and combination", "format": "cell-based", "conditions": "FIGS. 5-7", "excerpt": "FIG. 7 depicts, in accordance with various embodiments of the invention, effect of combination of GSK3β inhibitor tideglusib and HDAC inhibitor Saha on cell survival in pancreatic cancer cells MIA PaCa-2."}, "pdx1-Cre-LSL-Kras mice": {"system": "pdx1-Cre-LSL-Kras mice", "assay": "Mouse model of pancreatic cancer (pdx1-Cre-LSL-Kras) exposed to cigarette smoke: PanIN lesions and fibrosis", "format": "in vivo", "conditions": "Saha 50 mg/Kg 5 times per week, TDZD-8 4 mg/Kg 3 times per week, 6 weeks; compared to control group", "procedure": "FIG. 2 depicts, in accordance with various embodiments of the invention, effect of HDAC inhibitor Saha (50 mg/Kg) and GSK3β inhibitor (4 mg/Kg) alone and in combination on reducing PanIN lesion formation.\nFIG. 3 depicts, in accordance with various embodiments of the invention, effect of HDAC inhibitor Saha (50 mg/Kg) and GSK3β inhibitor (4 mg/Kg) alone and in combination on fibrosis.\nThe inventors used a mouse model of pancreatic cancer where an oncogene call mutant K-ras is expressed in the pancreas (pdx1-Cre-LSL-Kras). These mice were exposed to cigarette smoke for 6 weeks in smoking chambers. Groups of mice were injected with GSK3β inhibitor TDZD-8 (4 mg/Kg, 3 times per week) and/or HDAC inhibitor Saha (50 mg/Kg; 5 times per week) for 6 weeks.\nThe same effect was observed when measuring fibrosis with collagen staining. Fibrosis is a measure of cancer activity."}, "[10]": {"system": "MIA PaCa-2 pancreatic cancer cells", "assay": "EMT markers (vimentin, Twist, Snail) in pancreatic cancer cells", "format": "cell-based", "conditions": "FIG. 4", "excerpt": "FIG. 4 depicts, in accordance with various embodiments of the invention, effect of HDAC, GSK3β inhibitions combined with gemcitabine on EMT in MIA PaCa-2 pancreatic cancer cells.\nInhibition of GSK3β induces up-regulation of EMT as shown by a measure of vimentin which is an accepted measurement for EMT (FIG. 4). This effect of GSK3β was prevented by the HDAC inhibitor Saha (FIG. 4). […] A combination of the two inhibitors with gemcitabine, a chemotherapeutic agent used in pancreatic cancer led to a complete inhibition of the EMT marker vimentin and its transcription factors (FIG. 4)."}},
  "data": [
    {"compound": "COc1ccc(Nc2nnc(-c3ccc(C(=O)NO)cc3)o2)cc1", "note": "[ALB-185357]", "values": [
      {"measurement": "cell survival (MTT)", "setting": "[1]", "value": "dose-dependently decreases cell survival"},
      {"measurement": "cell survival (MTT)", "setting": "[2]", "value": "dose-dependently decreases cell survival"},
      {"measurement": "cell survival (cell numbers)", "setting": "Raji lymphoma cells", "value": "dose-dependently decreases cell survival"},
      {"measurement": "apoptosis (DNA fragmentation level)", "setting": "[3]", "value": "dose-dependently increases apoptosis"},
      {"measurement": "dose at which significance of apoptosis increase was achieved", "setting": "[3]", "value": 300, "unit": "nM"},
      {"measurement": "cell survival of normal cells (MTT)", "setting": "[4]", "value": "does not affect cell survival"},
      {"measurement": "expression of EMT markers N-cadherin and twist (Western)", "setting": "[5]", "value": "decreases expression"},
      {"measurement": "expression of cancer stemness marker Sox2 (Western)", "setting": "[5]", "value": "decreases expression"},
      {"measurement": "cell invasion", "setting": "[6]", "value": "decreases the invasion"},
      {"measurement": "GSK-3β phosphorylation/inhibition (Western)", "setting": "[7]", "value": "dose-dependently up-regulates"},
      {"measurement": "histone acetylation (Western)", "setting": "[7]", "value": "dose-dependently up-regulates"},
      {"measurement": "increase of mice survival", "setting": "KPC mice", "value": "at least 50%"},
      {"measurement": "survival of animals with advance pancreatic cancer", "setting": "KPC mice", "value": "improves survival"},
      {"measurement": "concentration at which significance of the effect on cell survival was achieved", "setting": "[8]; BxPC-3, 72 h, MTT", "value": 300, "unit": "nM"},
      {"measurement": "effect on cell survival compared with combination of saha and tideglusib", "setting": "[8]; BxPC-3, 72 h, same concentration", "value": "greater than the combination"},
      {"measurement": "cell survival (MTT)", "setting": "[8]; BxPC-3, cultured 72 h", "value": "dose-dependently decreased cell survival"}
    ]},
    {"compound": "O=c1sn(-c2cccc3ccccc23)c(=O)n1Cc1ccccc1", "note": "[tideglusib, 4-Benzyl-2-(naphthalen-1-yl)-1,2,4-thiadiazolidine-3,5-dione]", "values": [
      {"measurement": "cell survival", "setting": "[9]", "value": "dose-dependent effect"}
    ]},
    {"compound": "O=C(CCCCCCC(=O)Nc1ccccc1)NO", "note": "[Saha, subcroylanilide hydroxamic acid]", "values": [
      {"measurement": "formation of pancreatic intraepithelial neoplasia (PanIN) lesions", "setting": "pdx1-Cre-LSL-Kras mice", "value": "significantly decreased formation"},
      {"measurement": "cell survival", "setting": "[9]", "value": "dose-dependent effect"},
      {"measurement": "EMT marker vimentin", "setting": "[10]", "value": "prevented"},
      {"measurement": "transcription factors regulating EMT (Twist and Snail)", "setting": "[10]", "value": "inhibited"}
    ]}
  ]
}
